In patent US6458806B1, “Aryl alkenamides derivatives as MCP-1 antagonists” (Millennium Pharmaceuticals, Inc., priority 1996, dated 2002):
Structures can show the parent of a compound that is named as a salt.

Biological target: T1, MCP-1 receptor (Homo sapiens, UniProt P41597)
T1 construct: host or cells: THP-1 cell membranes
Experiment: MCP-1 binding assay (125I-MCP-1, THP-1 cell membranes)
Settings: 0.2 nM 125I-labeled MCP-1, averages of several or two experiments, read-out: Inhibition Of MCP-1 Binding IC50
Description: Membranes used in the MCP-1 binding assay were prepared from THP-1 cells (human monocytic cell line source—American Type Culture Collection, Tumor Immunology Bank #202, Rockville, Md., accession no. ATCC TIB 202). Cells were harvested by centrifugation and washed twice in ice-cold PBS (phosphate-buffered saline) and the cell pellet was frozen at −80° C. in some cases. Cells were resuspended in ice-cold lysis buffer 5mM HEPES (2-(4N-,[2-hydroxyethyl] piperazin-1-yl)-N′-(2-ethanesulfonic acid), pH 7.5, 2 mM EDTA (ethylenediaminetetraacetic acid), 5 ug/ml each leupeptin, aprotinin, chymostatin (protease inhibitors), and 100 ug/ml PMSF (phenylmethane sulfonyl fluoride—also a protease inhibitor)) at a concentration of 5×10^7 cells/ml. […] Typical binding assays used 10-20 ug/well of total membrane protein as determined with a standard protein assay (e.g. BioRad, Richmond, Calif.).
For binding, 10-20 ug total membrane protein were included in the binding reaction along with 0.2 nM I^125-labeled MCP-1 (Amersham, Arlington Heights, Ill.) with or without unlabeled competitor MCP-1 (Peprotech, Rocky Hill, N.J.) (at 250-500 nM). […] Filters were dried and counted in a Beta-Plate scintillation counter using standard scintillation fluid. […]
IC50s were calculated using a non-linear 3-parameter logistic curve fit. […]

T1 sequence (P41597 whole entry): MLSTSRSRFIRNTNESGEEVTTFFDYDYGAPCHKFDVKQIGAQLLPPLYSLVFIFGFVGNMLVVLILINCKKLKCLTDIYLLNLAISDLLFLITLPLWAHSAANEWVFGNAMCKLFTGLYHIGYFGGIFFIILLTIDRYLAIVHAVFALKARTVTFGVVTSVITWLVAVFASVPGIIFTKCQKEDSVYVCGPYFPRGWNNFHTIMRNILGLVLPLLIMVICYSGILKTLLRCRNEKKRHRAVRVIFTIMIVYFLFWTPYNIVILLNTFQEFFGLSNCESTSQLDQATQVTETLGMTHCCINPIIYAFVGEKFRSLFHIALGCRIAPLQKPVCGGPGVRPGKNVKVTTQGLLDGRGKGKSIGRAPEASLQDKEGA

IC50: 2200 nM
Structure (SMILES): O=C(/C=C/C=C/c1ccc(Cl)c(Cl)c1)NCCCN1CCCCC1 [Example 1, 5-(3,4-Dichloro-phenyl)-penta-2,4-dienoic Acid (3-piperidin-1-yl-propyl)-amide-HCl]
